Experimental findings from ChEMBL document CHEMBL6096727, “Structure-Based Rational Design and Evaluation of BET-Aurora Kinase Dual-Inhibitors for Treatment of Cancers” (J Med Chem, 2025) are described below.

The first assay deals with T1, Bromodomain-containing protein 2 (Homo sapiens, UniProt P25440). The assay can be described thus: Inhibition of BRD2 BD1 (unknown origin) incubated for 2 to 4 hrs under dark condition by FP assay.
T1 sequence (P25440 whole entry): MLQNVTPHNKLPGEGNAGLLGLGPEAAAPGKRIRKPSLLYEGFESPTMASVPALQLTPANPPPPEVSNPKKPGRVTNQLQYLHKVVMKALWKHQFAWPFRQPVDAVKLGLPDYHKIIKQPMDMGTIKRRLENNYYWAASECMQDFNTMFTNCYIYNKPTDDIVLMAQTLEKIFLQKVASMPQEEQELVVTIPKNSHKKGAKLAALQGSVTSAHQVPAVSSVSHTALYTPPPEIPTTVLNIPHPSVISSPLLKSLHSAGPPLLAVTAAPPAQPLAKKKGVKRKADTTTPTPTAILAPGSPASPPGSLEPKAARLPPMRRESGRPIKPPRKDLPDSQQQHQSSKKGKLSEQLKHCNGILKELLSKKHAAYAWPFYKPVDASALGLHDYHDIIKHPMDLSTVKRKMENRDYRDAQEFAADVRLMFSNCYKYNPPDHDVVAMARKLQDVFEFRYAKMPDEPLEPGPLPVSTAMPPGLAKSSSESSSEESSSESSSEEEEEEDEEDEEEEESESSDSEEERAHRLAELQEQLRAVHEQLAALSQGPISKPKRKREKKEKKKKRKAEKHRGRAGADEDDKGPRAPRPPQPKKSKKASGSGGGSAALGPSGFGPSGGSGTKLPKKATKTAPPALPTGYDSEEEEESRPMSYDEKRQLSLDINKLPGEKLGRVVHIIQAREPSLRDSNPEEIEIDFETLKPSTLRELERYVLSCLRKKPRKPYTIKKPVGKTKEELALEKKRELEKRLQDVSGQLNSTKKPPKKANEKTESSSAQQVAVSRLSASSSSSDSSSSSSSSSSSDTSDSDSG
Conditions: not given
Turning to `Cc1c(-c2nc(Nc3ccc4c(c3)N(C(C)C)[C@H](C)C(=O)N4C)ncc2F)c(C2CC2)nn1C`, 35 nM corresponded to half-maximal inhibition (IC50).

The target in a further assay is Cyclin-dependent kinase 9 (Homo sapiens) (UniProt P50750). The following applies: dose 100.0 nM.
Cyclin-dependent kinase 9 (Homo sapiens), sequence (P50750 whole entry): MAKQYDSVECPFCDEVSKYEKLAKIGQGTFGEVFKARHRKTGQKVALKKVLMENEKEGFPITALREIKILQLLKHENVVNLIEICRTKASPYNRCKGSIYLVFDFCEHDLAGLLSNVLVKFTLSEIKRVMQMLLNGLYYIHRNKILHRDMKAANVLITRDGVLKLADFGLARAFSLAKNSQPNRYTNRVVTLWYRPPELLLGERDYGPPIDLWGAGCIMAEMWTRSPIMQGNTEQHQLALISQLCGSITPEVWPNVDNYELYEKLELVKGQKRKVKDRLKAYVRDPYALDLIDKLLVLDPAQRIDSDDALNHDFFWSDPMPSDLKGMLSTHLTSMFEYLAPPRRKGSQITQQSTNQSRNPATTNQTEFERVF
Description: Inhibition of CDK9 (unknown origin) using caliper substrate CTD3 at 100 nM by mobility shift assay relative to control
Take `Cc1c(-c2ccnc(Nc3ccc4c(n3)N(C(C)C)[C@H](C)C(=O)N4C)n2)c(C2CC2)nn1C`: the inhibition (in general, the drop in the measured response relative to a control, in per cent) worked out at 0.8%.

With `Cc1c(-c2ccnc(Nc3ccc4c(c3)N(C(C)C)[C@H](C)C(=O)N4C)n2)c(C2CC2)nn1C`, the inhibition is 6.5%.

For the molecule `CC(C)c1n[nH]cc1-c1ccnc(Nc2ccc3c(c2)N(C(C)C)[C@H](C)C(=O)N3C)n1`, the inhibition was 69%.

For `CC[C@@H]1C(=O)N(C)c2ccc(Nc3nccc(-c4c(C5CC5)nn(C)c4C)n3)cc2N1C(C)C`, the inhibition is 2.7%.

Turning to `Cc1cc(Nc2ccnc(Nc3ccc4c(c3)N(C(C)C)[C@H](C)C(=O)N4C)n2)n(C(C)C)n1`, the inhibition came out at 0.5%.

For `Cc1c(-c2nc(Nc3ccc4c(c3)N(C(C)C)[C@H](C)C(=O)N4C)ncc2F)c(C2CCCC2)nn1C`, the inhibition was determined as 8.2%.

Take `Cc1c(-c2ccnc(Nc3ccc4c(c3)N(C3CCC3)[C@H](C)C(=O)N4C)n2)c(C2CC2)nn1C`: the inhibition came to 9.1%.

Turning to `CC(C)N1c2cc(Nc3nccc(-c4c[nH]nc4C4CCCC4)n3)ccc2N(C)C(=O)[C@H]1C`, the inhibition amounted to 62%.

For the molecule `CC[C@@H]1C(=O)N(C)c2ccc(Nc3ncc(F)c(-c4c(C5CCCC5)nn(C)c4C)n3)cc2N1C(C)C`, the inhibition was determined as 10%.

Take `CC[C@@H]1C(=O)N(C)c2ccc(Nc3ncc(F)c(-c4c(C5CCC5)nn(C)c4C)n3)cc2N1C(C)C`: the inhibition was determined as 10%.

Regarding `Cc1nn(C(C)C)cc1-c1ccnc(Nc2ccc3c(c2)N(C(C)C)[C@H](C)C(=O)N3C)n1`, the inhibition came to 2.5%.

For the molecule `CC(C)N1c2cc(Nc3nccc(-c4c[nH]nc4C4CCCCC4)n3)ccc2N(C)C(=O)[C@H]1C`, the inhibition came out at 56%.

Regarding `CC(C)N1c2cc(Nc3nccc(Nc4cc(-c5ccccc5)nn4C)n3)ccc2N(C)C(=O)[C@H]1C`, the inhibition is -1.5%.

`CCn1nccc1-c1ccnc(Nc2ccc3c(c2)N(C(C)C)[C@H](C)C(=O)N3C)n1`: the inhibition was 4.7%.

Take `CC(C)N1c2cc(Nc3nccc(Nc4cc(C(C)(C)C)nn4C)n3)ccc2N(C)C(=O)[C@H]1C`: the inhibition was 0%.

As to `CC(C)N1c2cc(Nc3nccc(-c4ccnn4C(C)C)n3)ccc2N(C)C(=O)[C@H]1C`, the inhibition was 14%.

Regarding `CCc1n[nH]c(C2CC2)c1-c1ccnc(Nc2ccc3c(c2)N(C(C)C)[C@H](C)C(=O)N3C)n1`, the inhibition amounted to 5.9%.

Turning to `CC[C@@H]1C(=O)N(C)c2ccc(Nc3ncc(F)c(-c4c(C5CC5)nn(C)c4C)n3)cc2N1C(C)C`, the inhibition stood at 19%.

Consider `CC(C)N1c2cc(Nc3nccc(Nc4cc(C5CC5)nn4C)n3)ccc2N(C)C(=O)[C@H]1C`, for which the inhibition was found to be 3.8%.

Take `Cc1c(-c2nc(Nc3ccc4c(c3)N(C(C)C)[C@H](C)C(=O)N4C)ncc2F)c(C2CC2)nn1C`: the inhibition was 15%.

As for `CC(C)N1c2cc(Nc3nccc(Nc4cc(C(C)(C)C)n[nH]4)n3)ccc2N(C)C(=O)[C@H]1C`, the inhibition came out at 45%.

`Cc1c(-c2ccnc(Nc3cc(F)c4c(c3)N(C(C)C)[C@H](C)C(=O)N4C)n2)c(C2CC2)nn1C`: the inhibition was -0.9%.

Regarding `CC(C)N1c2cc(Nc3nccc(-c4cc[nH]n4)n3)ccc2N(C)C(=O)[C@H]1C`, the inhibition turned out to be 5.4%.

As to `CC(C)N1c2cc(Nc3nccc(-c4ccn(C)n4)n3)ccc2N(C)C(=O)[C@H]1C`, the inhibition was -1.4%.

For the molecule `Cc1n[nH]c(C2CCC2)c1-c1ccnc(Nc2ccc3c(c2)N(C(C)C)[C@H](C)C(=O)N3C)n1`, the inhibition is 5.9%.

`Cc1n[nH]cc1-c1ccnc(Nc2ccc3c(c2)N(C(C)C)[C@H](C)C(=O)N3C)n1`: the inhibition is 53%.

`Cc1cc(Nc2ccnc(Nc3ccc4c(c3)N(C(C)C)[C@H](C)C(=O)N4C)n2)n(-c2ccccc2)n1`: the inhibition is 5.3%.

In the case of `CC(C)N1c2cc(Nc3nccc(-c4cn[nH]c4)n3)ccc2N(C)C(=O)[C@H]1C`, the inhibition is 73%.

Regarding `CC(C)N1c2cc(Nc3nccc(-c4c[nH]nc4-c4ccccc4)n3)ccc2N(C)C(=O)[C@H]1C`, the inhibition was found to be 23%.

With `Cc1cc(-c2ccnc(Nc3ccc4c(c3)N(C(C)C)[C@H](C)C(=O)N4C)n2)n(C)n1`, the inhibition was -0.4%.

Turning to `Cc1nn(-c2ccccc2)cc1-c1ccnc(Nc2ccc3c(c2)N(C(C)C)[C@H](C)C(=O)N3C)n1`, the inhibition stood at 0.9%.

On to `Cc1cnc(Nc2ccc3c(c2)N(C(C)C)[C@H](C)C(=O)N3C)nc1-c1c(C2CC2)nn(C)c1C`, for which the inhibition turned out to be 0%.

Regarding `Cc1c(-c2nc(Nc3ccc4c(c3)N(C(C)C)[C@H](C)C(=O)N4C)ncc2F)c(C2CCC2)nn1C`, the inhibition turned out to be 18%.

On to `Cc1c(-c2nc(Nc3ccc4c(c3)N(C(C)C)[C@H](C)C(=O)N4C)ncc2Cl)c(C2CC2)nn1C`, for which the inhibition came to 23%.

Regarding `Cc1n[nH]c(C2CC2)c1-c1ccnc(Nc2ccc3c(c2)N(C(C)C)[C@H](C)C(=O)N3C)n1`, the inhibition was found to be 12%.

Turning to `Cc1nn(C)cc1-c1ccnc(Nc2ccc3c(c2)N(C(C)C)[C@H](C)C(=O)N3C)n1`, the inhibition was determined as 3.2%.

On to `Cc1c(-c2ccnc(Nc3ccc4c(c3)N(C(C)C)[C@H](C)C(=O)N4C)n2)cnn1C`, for which the inhibition was 25%.

In the case of `Cc1n[nH]c(C)c1-c1ccnc(Nc2ccc3c(c2)N(C(C)C)[C@H](C)C(=O)N3C)n1`, the inhibition worked out at 5.8%.

Turning to `Cc1c(-c2ccnc(Nc3ccc4c(c3)N(C3CCCC3)[C@H](C)C(=O)N4C)n2)c(C2CC2)nn1C`, the inhibition worked out at 4.6%.

As to `CC(C)N1c2cc(Nc3nccc(-c4ccnn4C)n3)ccc2N(C)C(=O)[C@H]1C`, the inhibition was -1.3%.

As for `Cc1nn(C)c(C2CC2)c1-c1ccnc(Nc2ccc3c(c2)N(C(C)C)[C@H](C)C(=O)N3C)n1`, the inhibition stood at 3.4%.

`Cc1cc(Nc2ccnc(Nc3ccc4c(c3)N(C(C)C)[C@H](C)C(=O)N4C)n2)n(C)n1`: the inhibition was -0.3%.

Regarding `CCn1cc(-c2ccnc(Nc3ccc4c(c3)N(C(C)C)[C@H](C)C(=O)N4C)n2)c(C)n1`, the inhibition was 9.4%.

In the case of `Cc1cc(Nc2ccnc(Nc3ccc4c(c3)N(C(C)C)[C@H](C)C(=O)N4C)n2)n(C(C)(C)C)n1`, the inhibition was -1.5%.

In another assay the target is Bromodomain-containing protein 4 (Homo sapiens, UniProt O60885). The assay can be described thus: Inhibition of BRD4 BD1 (unknown origin).
Conditions: not given
For the molecule `CC(C)N1c2cc(Nc3nccc(-c4ccccc4)n3)ccc2N(C)C(=O)C1C` (stereo not drawn), half-maximal inhibition (IC50) required 193 nM.

The next assay concerns HCT-116. Description: Antiproliferative activity against human HCT-116 cells incubated for 48 hrs by 3H-thymidine uptake assay. The class given is functional, cell-based.
Conditions: not given
On to `Cc1sc2c(c1C)C(c1ccc(Cl)cc1)=N[C@@H](CC(=O)OC(C)(C)C)c1nnc(C)n1-2`, for which the midpoint of inhibition, the IC50, lay at 6150 nM.

Another assay deals with T1, Bromodomain-containing protein 2. Description: Inhibition of BRD2 BD2 (unknown origin) incubated for 2 to 4 hrs under dark condition by FP assay.
Conditions: not given
Regarding `Cc1c(-c2nc(Nc3ccc4c(c3)N(C(C)C)[C@H](C)C(=O)N4C)ncc2F)c(C2CC2)nn1C`, the IC50 (commonly the point on the concentration scale where inhibition reaches its midpoint) came out at 48 nM.
